What was measured:
[1] = tested on: U87MG glioblastoma cell line; assay: MTT assay, U87MG; type: cell-based; conditions: Homo sapiens, U-87 MG, 48 h, read-out: IC50 (50% inhibition of cell growth)
Procedure: (§1) For comparison purposes to the known anti-multiple myeloma effects of bortezomib, the RPMI/8226 multiple myeloma cell line was included in (A).
(§2) 3-(4,5-Dimethylthiazol-2-yl)-2,5-diphenyltetrazolium bromide (MTT) assays were performed in 96-well plates with the use of 3.0×10^3 to 8.0×10^3 cells per well as described in detail elsewhere (19).

[2] = tested on: CHOP, GRP78, caspase 4 in U251 glioblastoma cells; assay: Western blot of ER stress indicators in U251 cells; type: cell-based, human; conditions: U251, increasing concentrations, 24 hours
Procedure: U251 glioblastoma cells were cultured in the presence of 1 μM thapsigargin (Tg) or 60 μM DMC for various times, as indicated. Total cell lysates were prepared and analyzed by Western blot with specific antibodies to the ER stress proteins GRP78, CHOP, and caspase 4 (Casp 4). Actin was used as a loading control.
Shown are (A) time kinetics at 50 μM of each drug, and (B) concentration dependence after 15 hours of incubation.
Shown are (FIG. 7A) time kinetics at 50 μM of each drug, and (FIG. 7B), concentration dependence after 15 hours of incubation.
U251 glioblastoma cells were cultured for 24 hours in the presence of increasing concentrations of (A) bortezomib (BZM) or (B) DMC. Total cell lysates were analyzed by Western blot with specific antibodies to ubiquitin, GRP78, CHOP, and caspase 4. Actin was used as a loading control.
Total cell lysates were prepared by lysis of cells with radioimmunoprecipitation assay buffer (28), and protein concentrations were determined using the bicinchoninic acid protein assay reagent (Pierce, Rockford, Ill.). For Western blot analysis, 50 Ag of each sample were processed as described (29). The primary antibodies were purchased from Cell Signaling Technologies (Beverly, Mass.), Cayman Chemical (Ann Arbor, Mich.), or Santa Cruz Biotechnology, Inc. (Santa Cruz, Calif.) and used according to the manufacturer's recommendations. The secondary antibodies were coupled to horseradish peroxidase and detected by chemiluminescence using the SuperSignal West substrate from Pierce. All immunoblots were repeated at least once to confirm the results.
(§3) Total cell lysates were prepared and analyzed by Western blot analysis as described earlier (19). Immunohistochemical analysis of protein expression in tumor tissues was performed with the use of the Vectastain avidin-biotin complex method kit (Vector Laboratories) as described previously (32). The primary antibodies were purchased from Cell Signaling Technology or Santa Cruz Biotechnology, Inc. and used according to the manufacturers' recommendations. All immunoblots and stainings were repeated at least once to confirm the results.

[3] = tested on: LN229 glioblastoma cell line; assay: MTT assay, LN229; type: cell-based, human; conditions: Homo sapiens, LN-229, LN229, 48 h, read-out: IC50 (50% inhibition of cell growth)
Procedure: as §1, §2

[4] = tested on: CHOP protein in U87 glioblastoma tumor tissue; assay: Immunohistochemical staining for CHOP in xenograft tumor tissue; type: in vivo, nude mice; conditions: U87MG xenograft, 1 mg/kg BZM and 7.5 mg/kg DMC individually or in combination, 50 h
Excerpt: In all cases, representative sections are shown.
Immunohistochemical analysis of protein expression in tumor tissues was done with the use of the Vectastain avidin-biotin complex method kit (Vector Laboratories, Burlingame, Calif.) according to the manufacturer's instructions. This procedure uses biotinylated secondary antibodies and a preformed avidin: biotinylated enzyme complex that has been termed the avidin-biotin complex method technique. As the primary antibody, we used anti-CHOP antibody (Santa Cruz Biotechnology) diluted 1:100 in 2% normal goat blocking serum.

[5] = tested on: RPMI/8226 multiple myeloma cell line; assay: MTT assay, RPMI/8226; type: cell-based; conditions: RPMI/8226, 48 h, not more sensitive than the glioblastoma cell lines
Procedure: as §1, §2

[6] = tested on: U87 glioblastoma tumors; assay: TUNEL assay of xenograft tumor tissue; conditions: U87MG xenograft, 1 mg/kg BZM and 7.5 mg/kg DMC individually or in combination, 50 h
[7] = tested on: T98G glioblastoma cell line; assay: MTT assay, T98G; type: cell-based; conditions: Homo sapiens, 48 h, read-out: IC50 (50% inhibition of cell growth)
Procedure: as §1, §2

[8] = tested on: LN229 cells; assay: Colony formation assay, LN229; type: cell-based, human; conditions: LN229: 5 nM BZM, 60 μM CXB, 40 μM DMC, alone or combined; 48 hours, colonies two weeks thereafter
Procedure: Representative sections are shown. (B) Quantitative analysis of combination drug effects. […] Cell viability was determined by trypan blue exclusion assay.
The different small interfering RNAs (siRNA) were synthesized at the microchemical core laboratory of the University of Southern California/Norris Comprehensive Cancer Center; their sequences are described in ref. 32. Transfections of cells with these siRNAs and subsequent analysis of cell survival by colony formation assay have been described in detail elsewhere (32).

[9] = tested on: polyubiquitinated proteins in U251 cells; assay: Western blot of polyubiquitinated proteins, U251; type: cell-based, human; conditions: U251, increasing concentrations, 24 hours
Procedure: Total cell lysates were analyzed by Western blot with specific antibodies to ubiquitin, GRP78, CHOP, and caspase 4. Actin was used as a loading control. […] Note that in the caspase 4 blots several non-specific background bands were observed (consistent with similar observations in the literature); the specific bands were identified with the use of various controls (not shown) and comparison to the literature.
as §3

[10] = tested on: U251 glioblastoma cells; assay: MTT assay, U251; type: cell-based, human; conditions: Homo sapiens, U-251; U251, 48 h, MTT; read-out: IC50 (50% inhibition of cell growth)
Procedure: U251 glioblastoma cells were treated with different drugs, and various parameters of cell growth and cell death were comparatively analyzed. As controls, cells remained either non-treated (Co) or were treated with the solvent DMSO alone. (FIG. 8A) Cells were treated with 30 or 50 μM DMC for 48 hours and the effects on cell growth/survival and on cell death were determined by various assays. […] Below the three panels, the expression levels of the ER stress indicators CHOP, GRP78, and caspase 4 at the end of the 48 hour drug treatment is shown, as determined by Western blot analysis with specific antibodies (actin served as a loading control. (FIG. 8B) Cells were treated with various concentrations of different drugs for 48 hours, as indicated, and cell death was measured with the cell death ELISA kit. (FIG. 8C) Cells were treated with DMC or various coxibs and traditional NSAIDs for 48 hours, as indicated, and cell growth and survival was determined with the conventional MTT assay (control, non-treated cells were set at 100%). MTT assays were performed in 96-well plates with the use of 3.0-8.0×10^3 cells per well as described in detail elsewhere (34). In parallel, the expression levels of CHOP and GRP78 protein were determined by Western blot analysis. […]
as §2

- IC50 [1]: ~10 nM
- IC50 [3]: < 5 nM
- IC50 [7]: ~10 nM
- IC50 [10]: ~10 nM
Structure (SMILES): CC(C)C[C@H](NC(=O)[C@H](Cc1ccccc1)NC(=O)c1cnccn1)B(O)O [bortezomib]
- expression of GRP78 and CHOP [2]: increased expression of GRP78 and CHOP
- CHOP expression in tumor tissue [4]: larger fraction of CHOP-positive cells
- sensitivity of RPMI/8226 cells [5]: high sensitivity
- TUNEL staining of tumor tissue [6]: increased TUNEL staining
- reduction of colony number [8]: ~50%
- accumulation of polyubiquitinated proteins [9]: highly elevated levels of polyubiquitinated proteins

Reference: US9486461B2, “Methods and compositions for inducing apoptosis by stimulating ER stress” (UNIVERSITY OF SOUTHERN CALIFORNIA, priority 2007, dated 2016)
